Laboratory results taken from ChEMBL document CHEMBL6071135, “New resorcylic acid derivatives of Lysimachia tengyuehensis against MRSA and VRE by interfering with bacterial metabolic imbalance” (Eur J Med Chem, 2024).
Converted amounts (≈) assume the structure as drawn. The source made the active and inactive calls. No cut-off for these calls is given here.

Columns and labels:
Staphylococcus aureus [1] = experiment: Antibacterial activity against methicillin-resistant Staphylococcus aureus measured after 24 hrs by CLSI based broth microdilution method; assay type: functional
Staphylococcus aureus [2] = experiment: Bactericidal activity against methicillin-resistant Staphylococcus aureus measured after 24 hrs by CLSI based broth microdilution method; assay type: functional
Enterococcus faecalis [3] = experiment: Antibacterial activity against vancomycin-resistant Enterococcus faecalis ATCC51299 measured after 24 hrs by CLSI based broth microdilution method; assay type: functional
Enterococcus faecalis [4] = experiment: Bactericidal activity against vancomycin-resistant Enterococcus faecalis ATCC51299 measured after 24 hrs by CLSI based broth microdilution method; assay type: functional
Staphylococcus aureus [5] = experiment: Bactericidal activity against methicillin-resistant Staphylococcus aureus assessed as reduction in number of bacteria at 2 times MIC measured within 1 hr by time-kill assay; assay type: functional, organism-based
Staphylococcus aureus [6] = experiment: Antibacterial activity against methicillin resistant Staphylococcus aureus infected in female Kunming mouse model of skin infection assessed as reduction in wound size at 8 mg/kg administered daily pre-infected for 4 hrs followed by compound administration for 7 days; assay type: functional, organism-based; details: time 7.0 day
Staphylococcus aureus [7] = experiment: Antibacterial activity against methicillin resistant Staphylococcus aureus infected in female Kunming mouse model of skin infection assessed as suppression of purulent secretion at 8 mg/kg administered daily pre-infected for 4 hrs followed by compound administration for 7 days; assay type: functional, organism-based; details: time 7.0 day
Staphylococcus aureus [8] = experiment: Antibacterial activity against methicillin resistant Staphylococcus aureus infected in female Kunming mouse model of skin infection assessed as reduction in bacterial load of wound at 8 mg/kg administered daily pre-infected for 4 hrs followed by compound administration for 7 days; assay type: functional, organism-based; details: time 7.0 day
[9] = Toxicity in Kunming mouse assessed as morphological abnormalities at 8 mg/kg administered daily and measured after 7 days; assay type: organism-based; details: in vivo, 168 h, time 7 day
Staphylococcus aureus [10] = experiment: Antibacterial activity against methicillin resistant Staphylococcus aureus infected in female Kunming mouse model of skin infection assessed as reduction in inflammatory cell infiltration at 8 mg/kg administered daily pre-infected for 4 hrs followed by compound administration for 7 days; assay type: functional, organism-based; details: time 7.0 day
Staphylococcus aureus [11] = experiment: Antibacterial activity against methicillin resistant Staphylococcus aureus infected in female Kunming mouse model of skin infection assessed as increase in neovascularization at 8 mg/kg administered daily pre-infected for 4 hrs followed by compound administration for 7 days; assay type: functional, organism-based; details: time 7.0 day
Enterococcus faecalis [12] = experiment: Bactericidal activity against vancomycin-resistant Enterococcus faecalis ATCC51299 assessed as reduction in number of bacteria at 2 times MIC measured within 1 hr by time-kill assay; assay type: functional, organism-based
Enterococcus faecalis [13] = experiment: Drug resistance, ratio of MIC for vancomycin-resistant Enterococcus faecalis ATCC51299 after 20 days exposure to MIC for vancomycin-resistant Enterococcus faecalis ATCC51299 during first exposure; assay type: functional; details: time 20 day

Row | Compound | MIC (Staphylococcus aureus [1]) [µg/mL] | MBC (Staphylococcus aureus [2]) [µg/mL] | MIC (Enterococcus faecalis [3]) [µg/mL] | MBC (Enterococcus faecalis [4]) [µg/mL] | other results
1 | CCCCCCCCCCCCCc1cc(O)cc(O)c1 | 4 (≈ 13.7 µM) | 4 (≈ 13.7 µM) | 4 (≈ 13.7 µM) | 4 (≈ 13.7 µM) | –
2 | CCCCCCCCCCCCCc1cc(O)cc(O)c1C(=O)O | 4 (≈ 11.9 µM) | 4 (≈ 11.9 µM) | 8 (≈ 23.8 µM) | 8 (≈ 23.8 µM) | –
3 | CN[C@H](CC(C)C)C(=O)N[C@H]1C(=O)N[C@@H](CC(N)=O)C(=O)N[C@H]2C(=O)N[C@H]3C(=O)N[C@H](C(=O)N[C@H](C(=O)O)c4cc(O)cc(O)c4-c4cc3ccc4O)[C@H](O)c3ccc(c(Cl)c3)Oc3cc2cc(c3O[C@@H]2O[C@H](CO)[C@@H](O)[C@H](O)[C@H]2O[C@H]2C[C@](C)(N)[C@H](O)[C@H](C)O2)Oc2ccc(cc2Cl)[C@H]1O [VANCOMYCIN] | – | – | – | – | Activity (Staphylococcus aureus [5]): inactive; Activity (Staphylococcus aureus [6]): Active; Activity (Staphylococcus aureus [7]): Active; Activity (Staphylococcus aureus [8]): Active; Activity [9]: Non-Toxic; Activity (Staphylococcus aureus [10]): Active; Activity (Staphylococcus aureus [11]): Active
4 | COc1cccc(OC)c1C(=O)N[C@@H]1C(=O)N2[C@@H]1SC(C)(C)[C@@H]2C(=O)O [METHICILLIN] | > 128 | – | – | – | –
5 | CCCCCCCCCCCc1cc(O)cc(O)c1C(=O)O | 8 (≈ 25.9 µM) | 8 (≈ 25.9 µM) | 8 (≈ 25.9 µM) | 8 (≈ 25.9 µM) | –
6 | CCCCCCCCCCCCCCc1cc(O)cc(O)c1C(=O)O | 4 (≈ 11.4 µM) | 4 (≈ 11.4 µM) | 4 (≈ 11.4 µM) | 8 (≈ 22.8 µM) | –
7 | CC1(C)S[C@@H]2[C@H](NC(=O)[C@H](N)c3ccccc3)C(=O)N2[C@H]1C(=O)O [AMPICILLIN] | – | – | 2 (≈ 5.72 µM) | – | Activity (Enterococcus faecalis [12]): inactive; fold change (FC) (Enterococcus faecalis [13]): 4
8 | CCCCCCCCCCCCc1cc(O)cc(O)c1 | 8 (≈ 28.7 µM) | 8 (≈ 28.7 µM) | 4 (≈ 14.4 µM) | 4 (≈ 14.4 µM) | –
9 | CCCCCCCCCCCCc1cc(O)cc(O)c1C(=O)O | 8 (≈ 24.8 µM) | 8 (≈ 24.8 µM) | 4 (≈ 12.4 µM) | 4 (≈ 12.4 µM) | –
